Reference: patent US11166970B2, “Composition for preventing or treating neurological disorder comprising aucubin” (University-Industry Cooperation Group of Kyung Hee …, priority 2017, dated 2021)

How the values were obtained:
[1] = system: neuronal precursor cells expressing Pax6-GFP; assay: Immunofluorescence staining: number of neuronal precursor cells expressing Pax6-GFP; assay type: cell-based; settings: Pax6-GFP transgenic mouse neuronal precursor cells; aucubin 0.01-10 μM vs untreated; FIG. 4A, B
From the text: (§1) In order to culture neurons, cells were obtained from the brain of an E16 rat embryo according to a method known in the art (Lim et al., 2007; Jo et al., 2007). Specifically, hippocampal eminence was isolated from the forebrain of the E16 rat embryo, and cells were mechanically isolated from the thus-obtained hippocampal eminence tissue by using Ca^2+/Mg^2+-free HBSS(Hanks' Balanced Salt Solution, Invitrogen). PAX6-GFP expressing neuronal precursor cells (NPCs) were isolated from the sub ventricular zone of a PAX6-GFP transgenic mouse.
(§2) The culture of cells was supplemented with 10 ng/mL or 20 ng/mL of bFGF (basic fibroblast growth factor, Invitrogen), and culturing was performed for 3 days in a serum-free N2 medium. After the confluency of cells reaches 70% to 80% by culturing for 3 to 4 days, the cells were subjected to passaging, and then divided and seeded according to an experimental use. Subsequently, the cells were cultured for 7 days in a N2 medium where FGF is removed, allowing neurons to be sufficiently differentiated. The cells were treated with aucubin (Sigma) at varying concentrations (0 μM, 0.01 μM, 0.1 μM, 1 μM, or 10 μM) in a bFGF-free N2 medium. […]
(§3) For GFP-fluorescence staining, an anti-GFP (rabbit anti-GFP antibody, 1:500, Merck, Germany) primary antibody was used. […]

[2] = system: glutamatergic neurons expressing a vGluT1 marker; assay: Immunofluorescence staining: survival rate of glutamatergic neurons expressing a vGluT1 marker; assay type: cell-based, rat; settings: aucubin 0.01-10 μM vs cells not treated with aucubin; increase remarkably lower than for GABAergic neurons; FIG. 1B
From the text: as §1, §2
(§4) Thereafter, the number of the stained cells was counted and the survival rates thereof were shown in a graph. […]

[3] = system: GAD65/67; assay: Immunoblot analysis: expression of GAD65/67 (GABAergic neuron-specific marker); assay type: cell-based, rat; settings: relative to β-actin, aucubin 0.01-10 μM vs untreated, FIG. 3A, C
From the text: as §1, with “mouse. […]” for “mouse.”
(§5) Specifically, cells (30,000 cells/cm^2), which were cultured in a 60 mm petri dish coated with 15 μg/mL of poly-L-ornithine (Sigma-Aldrich, USA) and 1 μg/mL of fibronectin (Sigma-Aldrich, USA), were used. […] The protein quantification was performed using a Bradford protein assay kit (Bio-Rad, Hercules, Calif., USA).
(§6) Subsequently, a mixture of 20 μg of the proteins and a loading buffer (Biosesang Co., Seoul, Korea) was boiled at 100° C. for 10 minutes to denature the proteins. […] Thereafter, signals were detected after culturing the proteins with a secondary antibody.
(§7) In order to verify the effect of aucubin on enhancing the survival rates of GABAergic and glutamatergic neurons, the cells were treated with aucubin, followed by quantifying the expression levels of each cell type marker by an immunoblot method. […]

[4] = system: NeuN; assay: Immunoblot analysis: expression of NeuN (mature neuron-specific marker); assay type: cell-based, rat; settings: relative to β-actin, aucubin 0.01-10 μM vs untreated, FIG. 3A, B
From the text: as §1, with “mouse. […]” for “mouse.”
as §5, §6, §7

[5] = system: cells synthesizing GABA among the cells expressing Pax6-GFP; assay: Immunofluorescence staining: ratio of cells synthesizing GABA among cells expressing Pax6-GFP; assay type: cell-based; settings: Pax6-GFP transgenic mouse neuronal precursor cells; aucubin 0.01-10 μM vs untreated; FIG. 4C
From the text: as §1, §2, §3

[6] = system: GABAergic neurons expressing a GAD65/67 marker; assay: Immunofluorescence staining: survival rate of GABAergic neurons expressing a GAD65/67 marker; assay type: cell-based, rat; settings: aucubin 0.01-10 μM vs cells not treated with aucubin; survival rate relative to total number of cells; FIG. 1A
From the text: as §1, §2, §4

[7] = system: cholinergic neurons expressing a ChAT-GFP marker; assay: Immunofluorescence staining: survival rate of cholinergic neurons expressing a ChAT-GFP marker; assay type: cell-based; settings: ChAT-GFP transgenic mouse cells; aucubin 0.01-10 μM vs untreated; relative to total DAPI-stained cells; FIG. 2b
Experimental: as §2, §3
(§8) Thereafter, the number of the stained cells was counted, and compared with the number of the cells expressing a GABAergic neuron-specific marker (GAD65/67), and the survival rates thereof were shown in a graph.
(§9) Specifically, the cells cultured by the method according to Experimental Example 1 were treated with aucubin at varying concentrations of 0 μM, 0.01 μM, 0.1 μM, 1 μM, and 10 μM, respectively. The number of GABAergic neurons expressing a GAD65/67 marker and the number of cholinergic neuron expressing a ChAT-GFP marker were shown in graphs as survival rates relative to the total number of cells which were fluorescence stained with DAPI.

[8] = system: vGluT1; assay: Immunoblot analysis: expression of vGluT1 (glutamatergic neuron-specific marker); assay type: cell-based, rat; settings: relative to β-actin, aucubin 0.01-10 μM vs untreated, remarkably lower than GAD65/67, FIG. 3A, D
From the text: as §1, with “mouse. […]” for “mouse.”
as §5, §6, §7

[9] = system: GABAergic neurons expressing a GAD65/67 marker; assay: Immunofluorescence staining: survival rate of GABAergic neurons in ChAT-GFP transgenic mouse culture; assay type: cell-based; settings: ChAT-GFP transgenic mouse cells; aucubin 0.01-10 μM vs untreated; relative to total DAPI-stained cells; FIG. 2b
Experimental: as §2, §3, §8, §9

## OCC1=C[C@@H](O)[C@@H]2C=CO[C@@H](O[C@@H]3O[C@H](CO)[C@@H](O)[C@H](O)[C@H]3O)[C@H]12 [aucubin]
[1]
  increase in number of cells which express Pax6-GFP: about 2 fold
[2]
  survival rate of excitatory neurons expressing vGluT1: significantly increased
[3]
  increase in expression of GAD65/67 (GABAergic neuron-specific marker): up to 5 fold
[4]
  expression of NeuN (mature neuron-specific marker): remarkably increased
[5]
  increase in ratio of cells synthesizing GABA among the cells expressing Pax6-GFP: ≥ 1.5 fold
[6]
  increase in survival rate of GABAergic neurons expressing a GAD67/65 marker: up to 2 fold
[7]
  survival rate of cholinergic cells expressing a ChAT-GFP marker: the increase rate thereof was not significant
[8]
  expression of vGluT1 (glutamatergic neuron-specific marker): significantly increased
[9]
  increase in survival rate of GABAergic neurons expressing a GAD65/67 marker: ~2 fold
